Data on 3 compounds can be found in patent EP0358154B1, “Novel cyclobutane derivative and process for producing same” (NIPPON KAYAKU KABUSHIKI KAISHA, priority 1988, dated 1990).

Test [1] concerns herpes simplex virus type 2 (HSV-2). In words: HSV-2 infection in mice, survival (Experimental Example 6). The following applies: for Means survival time / Survivors/Total: once a day for 10 days, monitored 20 days. Type of test: in vivo, Balb/c mice. Here is the method: Activity of the sample (compound No. 2) against herpes simplex virus type 2 (HSV-2) infection was examined in mice. Balb/c mice (6 week-old, male) were inoculated intraperitoneally (l.p.) with HSV-2 strain 186 at 4.8 x 10^5 PFU/0.2 ml per mouse. The sample was formulated in saline and applied either orally (p.o.) or i.p. at the indicated doses once a day for 10 days, starting 6 hrs after virus infection. The mortality was monitored for 20 days after inoculation. Efficacy of the sample was indicated as extension of survival time and number of survivors. Aciclovir (ACV: commercialized antiviral agent) was used as reference sample.

The test system of test [2] is simple Herpes 2 type virus (HSV-II). Description: Plaque formation inhibition, HSV-II on Vero cell monolayer (Method 1). In kind it is cell-based. The following applies: read-out: IC50(µg/ml) HSV-2. Here is the method:
(§1) Antiviral activities against simple Herpes 1 type virus (HSV-I) and simple Herpes 2 type virus (HSV-II), both belonging to DNA virus, were examined by the following methods.
(§2) A 6-well multi-plate having a single layer of Vero cell (derived from the kidney cell of African Green-Monkey was infected with 100 to 150 PFU (plaque forming units) of virus. After adsorption at 37°C for one hour, a layer of agar medium (Eagle MEM medium containing 1.5% of agar) containing a varied concentration of sample was superposed thereon, and a cultivation was carried out at 37°C for 48 hours in 5% (v/v) carbon dioxide incubator. The formation of plaque was measured, from which 50% inhibitory value (IC50) was determined.

In test [3] the test system is mouse leukemia L1210 cell. In words: Growth inhibition of L1210 cells, cell counting (Method 6). In kind it is cell-based. The conditions noted are these: read-out: IC50(µg/ml) L1210. Here is the method: (§3) Carcinostatic activities on human cervical cancer HeLa S3 cell, mouse leukemia L1210 cell and […] cell were examined by the following methods. Cells of P388 and L1210 were spread onto a 24-well plate. After adding a sample, it was cultured at 37°C for 48 hours in 5% CO2 incubator. After the culture, the number of cells was counted by means of […]. The growth inhibitory rate in the treated group, based on that in the control group, was calculated from the following equation, from which 50% inhibitory concentration (CI50, micrograms/ml) was determined: The results obtained are as shown in Table 3. Growth inhibitory rate (%) = [1-(NT -NO )/NC -NO ] x 100 [formula] wherein NT = Cell number in treated group NO = cell number at the start of culture NC = Cell number in control group Table 3

The test system of test [4] is human cervical cancer HeLa S3 cell. In words: Growth inhibition of HeLa S3 cells, Methylene Blue dyeing (Method 5). Type of test: cell-based. The following applies: read-out: IC50(µg/ml) HeLaS3. Here is the method: Carcinostatic activities on human cervical cancer HeLa S3 cell, mouse leukemia L1210 cell and […] cell were examined by the following methods. HeLa S3 cell was made into a suspension (7.5 x 10^3 cells/ml). The suspension was spread on a 96-well flat plate at a rate of 0.2 ml/well. After culturing it at 37°C for 24 hours in 5% carbon dioxide incubator, 10 microliters of a sample was added and cultivation was carried out for 72 hours. Then, culture fluid was taken out from each well and immobilized with methanol, after which 0.1 ml/well of 0.05% Methylene Blue/10 mM-Tris-HCl (pH 8.5) solution was added and dyeing was carried out at room temperature for 30 minutes. The dyed fluid in each well was withdrawn by means of aspirator and three times washed with pure water. Then, 3% HCl was added at a rate of 0.2 ml/well and the resulting mixture was sealed and allowed to stand at room temperature for about 24 hours, to extract pigment from the cells. Optical absorbance of each well at 660 nm was measured by means of […] Microplate Reader, from which growth inhibitory rate (%) at varied concentration was calculated according to the following equation. […] Growth inhibitory rate (%) = (1 - A1 /A0 ) x 100 [formula] wherein A1 = Absorbance in the treated group, A0 = Absorbance in the control group.

Test [5] has as its system human leukemia P388 cell. Description: Growth inhibition of P388 cells, cell counting (Method 6). Type of test: cell-based. The conditions noted are these: read-out: IC50(µg/ml) P388. Here is the method: as §3
For test [6], the system named is human Cytomegalovirus (HCMV). Description: Anti-HCMV plaque formation inhibition on human embryonal fibroblast (Method 2). The conditions noted are these: read-out: IC50(µg/ml) HCMV. In kind it is cell-based. Here is the method:
Antiviral activity against human Cytomegalovirus (HCMV) belonging to DNA virus was examined by the following method.
Anti-HCMV activity was determined in the following manner. Thus, a 35 mm dish having a single layer of human embryonal fibroblast was infected with 100 PFU of HCMV (A0169 strain). After adsorption for one hour, one layer of a medium (0.5% agarose, 2% fetal calf serum) containing a varied concentration of sample compound was superposed thereon, and cultivation was carried out at 37°C for 10 days in 5% (v/v) carbon dioxide incubator. Then, formation of plaque was measured, from which 50% inhibitory value (IC50) was determined.

The subject of test [7] is simple Herpes 1 type virus (HSV-I). In words: Plaque formation inhibition, HSV-I on Vero cell monolayer (Method 1). In kind it is cell-based. The following applies: read-out: IC50(µg/ml) HSV-1. Here is the method: as §1, §2
Test [8] concerns Human Immunodeficiency Virus (HIV). In words: Anti-HIV activity in MT-4 cells, virus antigen by fluorescent antibody method (Method 4). In kind it is cell-based. The conditions noted are these: Human immunodeficiency virus 1, MT4, 96 h, read-out: IC50(µg/ml) HIV. Here is the method: Antiviral activity against Human Immunodeficiency Virus (HIV) belonging to […] was examined by the following method.
MT-4 cell (about 50,000 cells/ml) was introduced into a 24-well tray, to which was added […] of a solution containing a predetermined quantity of sample compound. Culture was carried out at 37°C for 2 hours in 5% (v/v) carbon dioxide incubator. Then, 10^3 to 10^4 infection units of HIV was added and cultured for 4 days, after which a part of the culture fluid was applied onto a slide glass and immobilized with acetone and development of virus antigen was tested by fluorescent antibody method.
As the primary antibody of fluorescent antibody method, serum of AIDS patient was used. As the secondary antibody, […] was used.

Test [9] relates to B hepatitis virus (HBV). In words: Anti-HBV activity in HB611 liver cells, HBV DNA by Southern method (Method 3). Type of test: cell-based. The conditions noted are these: read-out: IC50(µg/ml) HBV. Here is the method: Antiviral activity against B hepatitis virus (HBV) belonging to DNA virus was examined by the following method.
According to the procedure of Dulbecco (Proc. Natl. Acad. Sci. USA, 84, 444 (1987)), cultured liver cell strain HB611 producing and releasing active B hepatitis virus was cultured in a modified Eagle medium (GIBCO) at 37°C at a CO2 concentration of 5% in the presence of 10% fetal calf serum, 200 micrograms/ml of G418, 100 µ/ml of Penicillin and 100 µ/ml of Streptomycin. The culture fluid was inoculated onto a 6-well plate at a rate of 5 x 10^4 cells/well (35 mm). One or two days after, 50% confluence was reached, when a predetermined quantity of sample compound was added and cultivation was continued. Thereafter, cultivation was continued for 15 days, while refreshing the medium with a fresh medium containing the same concentrations of the chemicals at intervals of 3 days. Then, the medium was removed, and the cell bodies were treated with 0.5 ml of Lysis buffer (10 mM Tris HCl, pH 7.8/5 mM Na2EDTA, 1% SDS/0.1 mg/ml […]) at 37°C for one hour and dissolved thereinto. The DNA thus obtained was purified by RNase treatment, phenolchloroform treatment and ethanol precipitation.
Then, 5 micrograms of DNA was subjected to Hind III treatment, and DNA pattern was analyzed according to Southern method by using ^32P-labelled B hepatitis virus DNA as a probe.

Values after ≈ are worked out from the molar mass of the structure shown. Where two headings read alike, the source gives them in different places.

As for `Nc1nc2c(ncn2COCCO)c(=O)[nH]1` [ACV, Aciclovir, reference compound], the Means survival time in [1] (i.p., 12.5 mg/kg/day) was 11.1 days; in test [1] (i.p., 25 mg/kg/day), 12.7 days; in test [1] (i.p., 50 mg/kg/day), 16.1 days; in test [1] (i.p., 100 mg/kg/day) it was 5.4 days; in [1] (p.o., 12.5 mg/kg/day), 9.3 days; in test [1] (p.o., 25 mg/kg/day), 11.1 days. Moreover, the Means survival time in test [1] (p.o., 50 mg/kg/day) amounted to 14.8 days; in [1] (p.o., 100 mg/kg/day), 14.3 days. Also, the Survivors/Total is listed as 1/10 in test [1] (i.p., 12.5 mg/kg/day); 1/10 in test [1] (i.p., 25 mg/kg/day); 5/10 in [1] (i.p., 50 mg/kg/day); 2/10 in [1] (i.p., 100 mg/kg/day); 0/10 in test [1] (p.o., 12.5 mg/kg/day); 0/10 in [1] (p.o., 25 mg/kg/day). For the same compound, the Survivors/Total is on record as 4/10 in [1] (p.o., 50 mg/kg/day) and 2/10 in [1] (p.o., 100 mg/kg/day).

On to `Nc1ncnc2c1ncn2[C@@H]1C[C@H](CO)[C@H]1CO` [Compound 1, 9-[(1R,2R,3S)-2,3-Bis(hydroxymethyl)cyclobutane-1-yl] -adenine], for which the IC50 in test [2] (Human alphaherpesvirus 2, Vero cell, plaque formation, 48 hours) was determined as 8.9 µg/mL (≈ 35.7 µM); in test [3] (L1210, 48 hours, growth inhibition), 1.1 µg/mL (≈ 4.41 µM); in [4] (HeLa S3, 72 hours, growth inhibition) it was 14 µg/mL (≈ 56.2 µM); in test [5] (P388, 48 hours, growth inhibition) it was 0.58 µg/mL (≈ 2.33 µM); in [6] (Human betaherpesvirus 5, 240 h, human embryonal fibroblast, A0169 strain, plaque formation, 10 days), 12 µg/mL (≈ 48.1 µM); in test [7] (Human alphaherpesvirus 1, Vero cell, plaque formation, 48 hours), 7.3 µg/mL (≈ 29.3 µM). Moreover, the IC50 stood at 0.03 µg/mL (≈ 0.12 µM) in test [8] (MT-4 cell, cultured for 4 days, virus antigen) and 0.024 µg/mL (≈ 0.0963 µM) in test [9] (360 h, HB611 cells, 15 days, HBV DNA).

Regarding `Nc1nc2c(ncn2[C@@H]2C[C@H](CO)[C@H]2CO)c(=O)[nH]1` [Compound 2, 9-[(1R,2R,3S)-2,3-Bis(hydroxymethyl)cyclobutane-1-yl] -guanine], the IC50 in test [2] (Human alphaherpesvirus 2, Vero, 48 h) came out at 0.13 µg/mL (≈ 0.49 µM); in [3] (L1210, 48 h), 8.1 µg/mL (≈ 30.5 µM); in test [4] (HeLa S3, 72 h), 19 µg/mL (≈ 71.6 µM); in [5] (P388, 48 h), 1.6 µg/mL (≈ 6.03 µM); in test [6] (Human betaherpesvirus 5, Fibroblast, 240 h), 0.4 µg/mL (≈ 1.51 µM); in test [7] (Human alphaherpesvirus 1, Vero, 48 h), 0.03 µg/mL (≈ 0.113 µM). Also, the IC50 came to 0.3 µg/mL (≈ 1.13 µM) in [8] and 0.86 µg/mL (≈ 3.24 µM) in test [9] (HB611, 360 h). The Means survival time is 19.8 days in test [1] (i.p., 1.25 mg/kg/day); 18.9 days in test [1] (i.p., 2.5 mg/kg/day); 20.0 days in [1] (i.p., 5 mg/kg/day); 20.0 days in test [1] (i.p., 10 mg/kg/day); 20.0 days in [1] (i.p., 20 mg/kg/day); 12.4 days in test [1] (p.o., 1.25 mg/kg/day). The Means survival time in [1] (p.o., 2.5 mg/kg/day) was found to be 14.7 days; in test [1] (p.o., 5 mg/kg/day) it was 18.9 days; in test [1] (p.o., 10 mg/kg/day) it was 19.8 days; in test [1] (p.o., 20 mg/kg/day), 19.7 days. The Survivors/Total in [1] (i.p., 1.25 mg/kg/day) is recorded as 7/10; in test [1] (i.p., 2.5 mg/kg/day), 9/10; in test [1] (i.p., 5 mg/kg/day), 10/10; in test [1] (i.p., 10 mg/kg/day), 10/10; in test [1] (i.p., 20 mg/kg/day), 10/10; in test [1] (p.o., 1.25 mg/kg/day) it was 2/10. For the same compound, the Survivors/Total in test [1] (p.o., 2.5 mg/kg/day) is recorded as 4/10; in test [1] (p.o., 5 mg/kg/day), 8/10; in test [1] (p.o., 10 mg/kg/day), 9/10; in [1] (p.o., 20 mg/kg/day) it was 9/10. Further, the “reducing mortality rate of mice infected with HSV-2” value in test [1] (irrespective of administration routes (i.p., p.o.), 1.25 to 20 mg/kg per day) was “highly effective”.
